{"source": "paper PMC11211671", "about": "“Phage‐displayed heptapeptide sequence conjugation significantly improves the specific targeting ability of antimicrobial peptides against Staphylococcus aureus” (mLife, 2024)", "key": {"red blood cells": {"tested_on": "red blood cells", "type": "cell-based, pig", "procedure": "A series of parameters such as charge number, hydrophobicity, sequence length, and amphipathicity can affect the hemolytic activity of peptides against red blood cells. The minimal hemolytic concentration (MHC) refers to the minimum concentration that causes hemolysis of 10 % of red blood cells, and is often used to evaluate the hemolytic activity of the peptides. Except for SFK3, the percentage of hemolysis at 128 μM was below 5% for all peptides. Hemolysis of the erythrocytes occurred after incubation with Triton X‐100, with complete fragmentation of the erythrocytes and a bright red color of the reaction system (Figure 2B,C and Table S5).\nThe hemolytic activity of the peptide was calculated by measuring the level of […] released from mammalian red blood cell lysis induced by the peptide, [44]. Fresh porcine blood was collected from the jugular vein and washed with PBS three times, and red blood cells were collected. A red blood cell suspension of 10% (v/v) concentration was prepared in 10 mM PBS (pH = 7.4). After mixing with different concentrations of peptides in equal volume, they were incubated at 37°C for 2 h. Red blood cells treated with PBS and 0.1% Triton X‐100 were used as negative and positive controls, respectively. The assay was repeated three times. After the sample was centrifuged, the supernatant was transferred to a new 96‐well plate, and the optical density at 570 nm was measured using a microplate reader. Hemolysis was calculated as follows: Hemolytic activity(%)=ODtest sample−ODnegative control/ODpositive control−ODnegative control×100%"}, "S. aureus ATCC 6538": {"tested_on": "S. aureus ATCC 6538", "type": "cell-based, Staphylococcus aureus", "procedure": "(§1) MICs were determined to evaluate the antimicrobial activities of the peptides. The bacteria were inoculated into Mueller‐Hinton broth (MHB) medium in advance and placed in a shaker at 37°C until the logarithmic growth phase. The optical density value at OD600 of the bacterial suspension was adjusted to 0.4, and then diluted 1000 times with sterile MHB medium. Subsequently, the peptides with concentrations of 0.25–128 μM were prepared using bovine serum albumin (BSA) solution (0.2% BSA and 0.01% acetic acid) as the solvent on a 96‐well plate. Different concentrations of peptides and bacterial liquids were mixed in equal volumes. MHB medium containing bacteria was used as a positive control. MHB medium without bacteria was used as a negative control. Then, the mixture of peptides and bacteria was cultured in an incubator at 37°C for 18–24 h. The optical density of each well was measured at 492 nm using a microplate reader. The lowest drug concentration corresponding to a culture mixture with an optical density of less than 0.1 is the MIC of the peptide. The assay was repeated three times in duplicate.\nThe assay was performed to analyze the salt ion stability of SFK2 by measuring changes in MIC values in different physiological salt concentrations, [46]."}, "S. aureus 1882": {"tested_on": "S. aureus 1882", "type": "cell-based, Staphylococcus aureus", "procedure": "as §1"}, "S. aureus 6538": {"tested_on": "S. aureus 6538", "type": "cell-based, Staphylococcus aureus", "procedure": "as §1"}, "P. aeruginosa 15442": {"tested_on": "P. aeruginosa 15442", "type": "cell-based, Pseudomonas aeruginosa", "procedure": "as §1"}, "P. aeruginosa 27853": {"tested_on": "P. aeruginosa 27853", "type": "cell-based, Pseudomonas aeruginosa", "procedure": "as §1"}, "E. coli 25922": {"tested_on": "E. coli 25922", "type": "cell-based, Escherichia coli", "procedure": "as §1"}, "E. coli K88": {"tested_on": "E. coli K88", "type": "cell-based, Escherichia coli", "settings": "microbroth dilution, MHB, 37°C, 18–24 h, OD492 < 0.1; repeated three times in duplicate", "procedure": "as §1"}, "E. coli K99": {"tested_on": "E. coli K99", "type": "cell-based, Escherichia coli", "settings": "microbroth dilution, MHB, 37°C, 18–24 h, OD492 < 0.1; repeated three times in duplicate", "procedure": "as §1"}, "BALB/c mice [1]": {"tested_on": "BALB/c mice", "test": "Biosafety evaluation, intraperitoneal injection", "type": "in vivo, mouse", "settings": "i.p. 15 and 30 mg/kg once daily, 7 days, n = 6, except 15 mg/kg group for urea", "procedure": "Eighteen male BALB/c mice (weighing approximately 30 g) were randomly divided into three groups (control, low‐dose, and high‐dose groups). Mice in the low‐ and high‐dose groups were intraperitoneally injected with 15 and 30 mg/kg polypeptide solutions, respectively, once daily. Mice in the control group were injected intraperitoneally with 150 µl of saline once daily. The experiment lasted for 7 days, and the changes in the body weight of the mice were recorded. After the seventh intraperitoneal injection for another 12 h, the mice were anesthetized with ether and euthanized. Blood was collected from the orbital vein, and serum was analyzed by biochemical analysis after centrifugation. The livers and kidneys of mice were collected and weighed. Afterward, the organs were fixed in a 4% paraformaldehyde solution and stained with H&E for analysis."}, "BALB/c mice [2]": {"tested_on": "BALB/c mice", "test": "Biosafety evaluation, tail vein injection", "type": "in vivo, mouse", "settings": "tail vein 5 mg/kg once daily, 7 days, n = 6", "procedure": "Twelve male BALB/c mice (weighing approximately 20 g) were randomly divided into two groups (control and peptide‐treated groups). Mice in the peptide‐treated group were injected intravenously into the tail vein with 5 mg/kg peptide solution once daily. In the control group, mice were injected once daily with saline via the tail vein. The experiment was continued for 7 days, and changes in body weight were recorded. Mice were anesthetized with ether and euthanized 12 h after the seventh tail vein injection. Blood was collected from the orbital vein and centrifuged, and the serum was analyzed biochemically. The livers and kidneys of mice were collected and weighed. The organs were then fixed in a 4% paraformaldehyde solution and analyzed by H&E staining."}, "S. epidermidis 12228": {"tested_on": "S. epidermidis 12228", "type": "cell-based, Staphylococcus epidermidis", "procedure": "as §1"}}, "note": "Peptide text beside a SMILES is read from it.", "data": [{"smiles": "CC[C@H](C)[C@H](NC(=O)[C@H](CCCNC(=N)N)NC(=O)[C@H](CO)NC(=O)[C@H](CC(C)C)NC(=O)[C@H](Cc1ccccc1)NC(=O)[C@H](Cc1ccccc1)NC(=O)[C@H](Cc1ccccc1)NC(=O)CNC(=O)CNC(=O)CNC(=O)[C@H](CO)NC(=O)[C@H](C)NC(=O)[C@H](CCCNC(=N)N)NC(=O)[C@@H](NC(=O)[C@H](Cc1c[nH]c2ccccc12)NC(=O)[C@H](Cc1ccc(O)cc1)NC(=O)[C@@H](N)CO)C(C)C)C(=O)N[C@@H](Cc1ccccc1)C(=O)N[C@@H](CCCCN)C(=O)N[C@@H](CCCCN)C(N)=O", "note": "[SFK2] (H-SYWVRASGGGFFFLSRIFKK-NH2)", "values": [{"measurement": "MHC", "setting": "red blood cells", "value": ">128 μM"}, {"measurement": "MIC of SFK2 against S. aureus ATCC 6538, Control", "setting": "S. aureus ATCC 6538", "value": 2, "unit": "µM"}, {"measurement": "MIC of SFK2 against S. aureus ATCC 6538, FeCl3", "setting": "S. aureus ATCC 6538", "value": 4, "unit": "µM"}, {"measurement": "MIC of SFK2 against S. aureus ATCC 6538, KCl", "setting": "S. aureus ATCC 6538", "value": 4, "unit": "µM"}, {"measurement": "MIC of SFK2 against S. aureus ATCC 6538, MgCl2", "setting": "S. aureus ATCC 6538", "value": 4, "unit": "µM"}, {"measurement": "MIC of SFK2 against S. aureus ATCC 6538, NH4Cl", "setting": "S. aureus ATCC 6538", "value": 4, "unit": "µM"}, {"measurement": "MIC of SFK2 against S. aureus ATCC 6538, NaCl", "setting": "S. aureus ATCC 6538", "value": 4, "unit": "µM"}, {"measurement": "MIC of SFK2 against S. aureus ATCC 6538, ZnCl2", "setting": "S. aureus ATCC 6538", "value": 2, "unit": "µM"}, {"measurement": "MIC S. aureus 1882", "setting": "S. aureus 1882", "value": 2, "unit": "µM"}, {"measurement": "MIC S. aureus 6538", "setting": "S. aureus 6538", "value": 2, "unit": "µM"}, {"measurement": "MIC P. aeruginosa 15442", "setting": "P. aeruginosa 15442", "value": ">64", "unit": "µM"}, {"measurement": "MIC P. aeruginosa 27853", "setting": "P. aeruginosa 27853", "value": ">64", "unit": "µM"}, {"measurement": "MIC E. coli 25922", "setting": "E. coli 25922", "value": ">64", "unit": "µM"}, {"measurement": "MIC E. coli K88", "setting": "E. coli K88", "value": ">64", "unit": "µM"}, {"measurement": "MIC E. coli K99", "setting": "E. coli K99", "value": ">64", "unit": "µM"}, {"measurement": "Relative organ indices and liver- and kidney function-related indices (Crea, urea, AST, ALT, TBIL, ALP)", "setting": "BALB/c mice [1]", "value": "no significant differences"}, {"measurement": "Toxic side effects after tail vein injection", "setting": "BALB/c mice [2]", "value": "negligible toxic side effects"}, {"measurement": "MIC S. epidermidis 12228", "setting": "S. epidermidis 12228", "value": ">64", "unit": "µM"}]}]}
